Test results taken from US20130280204A1 (priority 2007, published 2013).
Like-named read-outs stand apart in the source and are kept apart here.

Assays:
[1] = test system: avian influenza A/turkey/MN/833/80 (TKY); test: microbe, parasite or virus in culture; format: cell-based, influenza A virus H4N2
[2] = test system: human influenza A/Wuhan/359/95 (Wuhan); test: microbe, parasite or virus in culture; format: cell-based, influenza A virus H3N2
influenza A/WSN/33 (WSN) = test: microbe, parasite or virus in culture; format: cell-based, influenza A virus H1N1; details: read-out: IC50 (nM 1) WSN
TKY Drug-free p23 (DF23) = format: cell-based, influenza A virus H4N2; details: read-out: IC50 (nM, based on ZA) Drug-free p23
[3] = test system: A/Nanchang/933/95 (Nanchang) virus; design: species or system ferrets; details: in vivo
[4] = biological target: viral NA of TKY Drug-free p23 (DF23) (Influenza A virus (A/turkey/Minnesota/833/1980(H4N2)), UniProt Q20NP0); format: biochemical; details: read-out: Ki (nM, based on ZA) Drug-free p23
[5] = biological target: viral NA of TKY Wild-type (Influenza A virus (A/turkey/Minnesota/833/1980(H4N2)), UniProt Q20NP0); format: biochemical; details: read-out: Ki (nM, based on ZA) Wild-type
[6] = test system: avian strain A/Turkey/MN/80 (TKY); format: cell-based, influenza A virus H4N2
TKY Wild-type = format: cell-based, influenza A virus H4N2; details: read-out: IC50 (nM, based on ZA) Wild-type
active site of NA = details: read-out: affinity constant for the active site of NA; cited from earlier work
WSN strain = test system: WSN strain; design: species or system Balb/C mice; details: mouse, in vivo
TKY virus = format: cell-based, influenza A virus H4N2; details: t=15 min

Chain of viral NA of TKY Wild-type (Influenza A virus (A/turkey/Minnesota/833/1980(H4N2)), UniProt Q20NP0) (Q20NP0 whole entry, looked up): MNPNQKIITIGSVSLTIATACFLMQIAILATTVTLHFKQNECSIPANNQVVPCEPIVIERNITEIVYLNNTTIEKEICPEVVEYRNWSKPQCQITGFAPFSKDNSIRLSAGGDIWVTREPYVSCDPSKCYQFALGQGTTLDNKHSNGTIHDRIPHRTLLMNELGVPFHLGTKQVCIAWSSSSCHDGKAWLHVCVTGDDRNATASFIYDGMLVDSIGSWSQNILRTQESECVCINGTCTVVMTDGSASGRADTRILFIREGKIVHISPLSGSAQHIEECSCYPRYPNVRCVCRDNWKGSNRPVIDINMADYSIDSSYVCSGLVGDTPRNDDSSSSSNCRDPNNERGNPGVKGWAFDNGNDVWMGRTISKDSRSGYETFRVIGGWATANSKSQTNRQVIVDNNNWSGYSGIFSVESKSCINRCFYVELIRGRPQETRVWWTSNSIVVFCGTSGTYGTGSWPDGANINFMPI
Chain of viral NA of TKY Drug-free p23 (DF23) (Influenza A virus (A/turkey/Minnesota/833/1980(H4N2)), UniProt Q20NP0) (Q20NP0 whole entry, looked up): as above

SMILES: CC(=O)NC1C(NC(=N)N)C=C(C(=O)O)OC1C(OC(=O)NCCOCCN)C(O)CO (stereo not shown) [compound 3, 3-Acetamido-2-(1-(((2-(2-aminoethoxy)ethyl)carbamoyl)oxy)-2,3-dihydroxypropyl)-4-guanidino-3,4-dihydro-2H-pyran-6-carboxylic acid]
- IC50 ([1]; read-out: IC50 (nM 1) TKY): 1.4e+06 nM
- IC50 ([2]; read-out: IC50 (nM 1) Wuhan): 1.3e+06 nM
- IC50 (influenza A/WSN/33 (WSN)): 57000 nM

SMILES: CC(=O)N[C@H]1[C@H]([C@H](O)[C@H](O)CO)OC(C(=O)O)=C[C@@H]1N=C(N)N [compound 1, zanamivir]
- IC50 (TKY Drug-free p23 (DF23)): 38 ± 31 nM
- IC50 ([1]; H4N2, read-out: IC50 (nM Sugar) Turkey/WT (H4N2)): 20000 nM
- reduction in nasal wash viral titer compared to PBS controls, day 4 p.i. [3]: did not
- reduction in nasal wash viral titer compared to PBS controls, day 6 p.i. [3]: did not
- reduction in nasal wash viral titer compared to PBS-treated group, day 2 p.i. [3]: 38 fold
- Ki [4]: 8.8 ± 5.6 nM
- Ki [5]: 5.3 ± 0.4 nM
- change of potency (IC50), early and late vs late only [6]: remained the same
- IC50 ([2]; H3N2, read-out: IC50 (nM Sugar) Wuhan (H3N2)): 20000 nM
- IC50 (TKY Wild-type): 56 ± 8 nM
- Kd (active site of NA): 0.0001 to 0.001 µM
- drop of viral titers in lung homogenates vs untreated mice (WSN strain): 20 fold

SMILES: CC(=O)NC1C(NC(=N)N)C=C(C(=O)O)OC1C(OC(=O)Nc1ccc(CN)cc1)C(O)CO (stereo not shown) [compound 4, 3-Acetamido-2-(1-(((4-(aminomethyl)phenyl)carbamoyl)oxy)-2,3-dihydroxypropyl)-4-guanidino-3,4-dihydro-2H-pyran-6-carboxylic acid]
- IC50 ([1]; read-out: IC50 (nM 1) TKY): 2.3e+06 nM
- IC50 ([2]; read-out: IC50 (nM 1) Wuhan): 840000 nM
- IC50 (influenza A/WSN/33 (WSN)): 76000 nM

SMILES: NC12CC3CC(CC(C3)C1)C2 [amantadine]
- viral particles inside the cells (TKY virus): accumulation of viral particles inside the cells
